Reference: patent US20230381142A1, “ANTILEISHMANIAL COMPOUNDS, COMPOSITIONS AND USE THEREOF” (TRUSTEES OF BOSTON UNIVERSITY, priority 2022, published 2023)
In brackets after ≈: the same amount, converted by molar mass.

What was measured:
[1] = Kinetic aqueous solubility by CAD; format: physicochemical; settings: aqueous medium, kinetic from dmso stock, high-throughput CAD
Procedure: Solubility of compounds using ChemiLuminescent Nitrogen Detection (CLND) was measured as described. Solubility of compounds using Charged Aerosol Detection (CAD) was measured as described. Solubility of solid compounds in Fasted Simulated Intestinal Fluid (FaSSIF) was measured as described.

[2] = system: L. donovani intracellular amastigotes in B10R cells; assay: UCSD L. donovani infection assay (Assay Conditions D); format: cell-based; settings: Leishmania donovani; for EC50: average of two biological replicates, read-out: L. donovani EC50 (UCSD assay)
Method in brief: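 Compounds, either single-point at 10 μM or 10-point 2-fold series (3 technical, 2 biological replicates), were incubated 72 h at 37° C. with B10R host cells co-seeded with day-7 stationary L. donovani promastigotes (20:1). DAPI-stained nuclei imaging yielded intracellular parasite EC50 and host-cell CC50.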

human serum albumin = human serum albumin (Homo sapiens, UniProt P02768); assay: Human serum albumin (HSA) binding, chromatographic; format: in vitro ADME
Procedure: The percentage of compound bound to human serum albumin was measured using a chromatographic method as described. Briefly, each compound was assayed on an immobilized HSA column and gradient retention times measured, with chromatographic peak detection by UV. Each retention time was then converted to a % HSA bound value using a calibration set of compounds with a known % HSA binding.

[3] = Property forecast index (PFI = ChromLogD7.4 + aromatic rings); format: physicochemical
[4] = UCSD infection assay, host cell cytotoxicity (CC50); format: cell-based; settings: host macrophages infected with L. donovani; cytotoxicity against host macrophages
[5] = system: L. donovani intracellular amastigotes infecting THP-1 macrophages; assay: GSK intramacrophage L. donovani assay (LD AMMAC, inMac; Assay Conditions C); format: cell-based; settings: Leishmania donovani, THP-1
Method in brief: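 EC50 values come from counting amastigotes per infected THP-1 macrophage (AMMAC). Parallel read-outs give percentage of infected cells per well (INFCELL) and a macrophage-number toxicity EC50 (MAC).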

Chain of human serum albumin (P02768 25-609): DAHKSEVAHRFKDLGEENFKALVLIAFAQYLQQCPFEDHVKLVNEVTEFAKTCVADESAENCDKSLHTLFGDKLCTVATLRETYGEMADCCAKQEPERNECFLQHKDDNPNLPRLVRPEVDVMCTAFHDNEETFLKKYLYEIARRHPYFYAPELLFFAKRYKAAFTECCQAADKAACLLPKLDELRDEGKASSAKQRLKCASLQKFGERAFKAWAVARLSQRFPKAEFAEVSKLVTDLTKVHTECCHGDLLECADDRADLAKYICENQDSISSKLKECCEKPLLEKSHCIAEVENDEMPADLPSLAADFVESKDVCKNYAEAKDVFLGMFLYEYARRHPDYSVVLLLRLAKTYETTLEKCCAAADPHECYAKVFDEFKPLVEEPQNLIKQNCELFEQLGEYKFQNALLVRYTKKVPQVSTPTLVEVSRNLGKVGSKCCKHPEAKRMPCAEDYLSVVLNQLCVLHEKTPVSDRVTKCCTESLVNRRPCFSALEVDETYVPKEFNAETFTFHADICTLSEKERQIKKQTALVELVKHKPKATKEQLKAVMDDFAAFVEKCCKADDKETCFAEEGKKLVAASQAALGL

Compound | solubility [1] | IC50 [2] | EC50 [2] | HSA Binding (human serum albumin) | PFI [3] | CC50 at 72 h [4] | IC50 [5]
Cc1cc(F)ccc1C1c2c(CC(C)C)n[nH]c2C(=O)N1c1ccc(Br)cc1 (stereo not shown) [Compound 76, 5-(4-bromophenyl)-4-(4-fluoro-2-methylphenyl)-3-isobutyl-4,5-dihydropyrrolo[3,4-c]pyrazol-6(1H)-one] | < 1 µM | 100 nM | 120 nM | 97.7% | 9.8 | 3.04 µM | 600 nM
COc1cc(F)ccc1C1c2c(CC(C)C)n[nH]c2C(=O)N1c1ccc(Br)cc1 (stereo not shown) [Compound 77, 5-(4-bromophenyl)-4-(4-fluoro-2-methoxyphenyl)-3-isobutyl-4,5-dihydropyrrolo[3,4-c]pyrazol-6(1H)-one] | < 1 µM | 100 nM | 120 nM | 98.5% | 9.7 | 4.04 µM | 100 nM
CC(C)Cc1n[nH]c2c1C(c1ccccc1Cl)N(c1ccc(N(C)C)cc1)C2=O (stereo not shown) [Compound 78, 4-(2-chlorophenyl)-5-(4-(dimethylamino)phenyl)-3-isobutyl-4,5-dihydropyrrolo[3,4-c]pyrazol-6(1H)-one] | 21 µM (≈ 8.59 µg/mL) | 300 nM | 260 nM | 96.7% | 9.4 | 7.32 µM | 800 nM
COc1ccccc1C1c2c(CC(C)C)n[nH]c2C(=O)N1c1ccc(N(C)C)cc1 (stereo not shown) [Compound 80, 5-(4-(dimethylamino)phenyl)-3-isobutyl-4-(2-methoxyphenyl)-4,5-dihydropyrrolo[3,4-c]pyrazol-6(1H)-one] | 66 µM (≈ 26.7 µg/mL) | 100 nM | 70 nM | 95.7% | 8.6 | 3.45 µM | 200 nM
Cc1cc(F)ccc1C1c2c(CC(C)C)n[nH]c2C(=O)N1c1ccc(N(C)C)cc1 (stereo not shown) [Compound 81, 5-(4-(dimethylamino)phenyl)-4-(4-fluoro-2-methylphenyl)-3-isobutyl-4,5-dihydropyrrolo[3,4-c]pyrazol-6(1H)-one] | 27 µM (≈ 11 µg/mL) | 100 nM | 110 nM | 96.5% | 9.1 | 7.51 µM | 100 nM
COc1cc(F)ccc1C1c2c(CC(C)C)n[nH]c2C(=O)N1c1ccc(N(C)C)cc1 (stereo not shown) [Compound 82, 5-(4-(dimethylamino)phenyl)-4-(4-fluoro-2-methoxyphenyl)-3-isobutyl-4,5-dihydropyrrolo[3,4-c]pyrazol-6(1H)-one] | 45 µM (≈ 19 µg/mL) |  | 40 nM | 97.1% | 8.8 | 8.5 µM | 4000 nM
COc1ccc(N2C(=O)c3[nH]nc(CC(C)C)c3C2c2ccccc2OC)cn1 (stereo not shown) [Compound 85, 3-isobutyl-4-(2-methoxyphenyl)-5-(6-methoxypyridin-3-yl)-4,5-dihydropyrrolo[3,4-c]pyrazol-6(1H)-one] | 176 µM (≈ 69.1 µg/mL) | 1100 nM | 1110 nM | 93.9% | 8.0 | > 20 µM | 7900 nM
Cc1cc(F)ccc1C1c2c(CC(C)C)n[nH]c2C(=O)N1c1ccc2ncnn2c1 (stereo not shown) [Compound 89, 5-([1,2,4]triazolo[1,5-a]pyridin-6-yl)-4-(4-fluoro-2-methylphenyl)-3-isobutyl-4,5-dihydropyrrolo[3,4-c]pyrazol-6(1H)-one] | < 1 µM | 900 nM | 870 nM | 93.2% | 8.1 | > 20 µM | 1600 nM
